# Assay results from PMC7156724, “Potent BRD4 inhibitor suppresses cancer cell-macrophage interaction” (Nature Communications, 2020).
# “And” between values parts separate entries of the source, which are not always exact repeats. Equal values may be shown once.
# Legend:
# A375 human melanoma = A375 human melanoma xenograft tumor growth; assay type: in vivo, mouse
# From the text: PO, oral administration; QD, once daily; BID, twice daily. b–d Tumor growth curves for A2780 ovarian tumor (n = 5) (b), TMD8 large B cell lymphoma (n = 6) (c), and B16F10 melanoma (n = 5) (d) bearing mice treated with the indicated compounds once daily for 11-21 days. e, f Tumor growth curves for A375 melanoma (n = 6) (e), and patient-derived xenograft (PDX) of melanoma (n = 5) (f) bearing mice treated with the indicated compounds once daily (5 days on, 2 days off) for 21 days. For d–f, NHWD-870 used is NHWD-870-HCl synthesized using Suzuki coupling route. Data are presented as mean ± SEM in (a, b, d, f) and mean + SEM in (c, e). p values were calculated using two-tailed, unpaired t tests. *p < 0.05; **p < 0.01; ***p < 0.001. Source data are provided as a Source Data file.
# 4–6 weeks old female BALB/c nude mice were used for most experiments, with the exception of 6–8 weeks old female C57BL/6 mice were used for B16F10 experiments, and 6–8 weeks old male BALB/c nude mice and SD rats were used for pharmacokinetic experiments. All animals were purchased from Shanghai SIPPR-Bk Lab Animal Co., Ltd. All animals were housed under a regimen of 12 h light/12 h dark cycles and specific pathogen-free conditions. 5×10^6 NCI-H526, ES-2, MDA-MB231, A2780, A375, B16F10, and TMD-8 cells (0.1 ml) were injected subcutaneously into female nude mice. The melanoma patient-derived xenograft model was derived from a human melanoma sample (BRAF, NARS and NF1 wild type, and p53 mutant) removed from a patient in Xiangya Hospital. Surgically removed tumor fragments were implanted subcutaneously into female NSG mice. When the tumors grew to ~1000 mm^3, they were harvested and cryopreserved or immediately re-implanted for expansion or experiments. Mouse body weight and tumor sizes were measured every 3 days. Once the tumors grew to 150–200 mm^3, mice were treated with the compounds as described in the Figures. 1 × 10^6 A2780 cells (1 ml) were injected into the abdominal cavity of nude mice. Ascitic volume and tumor weight were measured by an electronic balance. All the procedures were evaluated and approved by the Institutional Animal Care and Use Committee of Central South University and Yale University. […]
# We apologize for not clearly labeling the experiments using compounds synthesized using Suzuki coupling method. In the revised manuscript, we modified the text to clearly mark the animal models in Fig 3d-f were tested using NHWD-870 synthesized using Suzuki […]
# compared the activity of NHWD-870 synthesized using Stille coupling route with the NHWD-870 synthesized from Suzuki coupling route (Reviewer Figure 1). […]
# activity and possible toxicity were identical.
# Reviewer Figure 1 NHWD-870 synthesized through Stille or Suzuki route has similar properties in vivo. Tumor bearing mice were treated with 2mg/kg of the indicated compounds, orally administrated once daily for 21 days. Shown are tumor growth curves (a) and body weight change (b) for A375 melanoma bearing mice. […]
# 986158 in terms of potency, but apart from with the A375 melanocyte cell line, the advance seems relatively moderate. With such similar compounds, the pharmacokinetic properties and ability to accumulate at the desired site is often more important. Figure S6d (prev. Fig. 3d) in the previous
# H526 tumors = assay: Immunofluorescent staining of cleaved caspase 3 and Ki67 in H526 tumors; assay type: in vivo, mouse; settings: treated H526 tumors, independent images
# Protocol: Immunofluorescence staining of tumor sections was performed according to the manufacturer’s instructions. Slides were imaged using a Zeiss Axiovert 200 fluorescence microscope (Carl Zeiss MicroImaging; Thornwood, NY), and images were captured using Openlab3 software (Imprecision, Lexington, MA). Cleaved caspase 3, Ki67, CSF1, and CD68 positive cells were counted with ImageJ version 1.52s[58].
# Supplementary Figure 10. NHWD-870 increased tumor apoptosis and inhibite d tumor proliferation.
# (a,b) Immunofluorescent staining of cleaved caspase 3 (apoptotic cells, red) and E-Cadherin (cancer cells, […]
# green) in vehicle, NHWD-870 or BMS-986158 treated H526 tumors from Figure 4a. Shown are […]
# representative images of cleaved caspase 3 positive cells (a) and quantification of cleaved caspase 3 positive […]
# cells (b). Scale bar is 30 μm. Data are presented as mean ± SEM from 6 independent images. p values were […]
# calculated using two-tailed, unpaired t tests. **, p<0.01; ***, p<0.001. (c,d) Immunofluorescent staining of […]
# Ki67 (proliferating cells, red) and E-Cadherin (cancer cells, green) in vehicle, NHWD-870 or BMS-986158 […]
# treated H526 tumors from (Figure 4a). Shown are representative images of Ki67 positive cells (c) and […]
# quantification of Ki67 positive cells (d). Scale bar is 30 μm. […]
# independent images. p values were calculated using two-tailed, unpaired t tests. *, p<0.05; ***, p<0.001. […]
# [1] = system: NCI-H211 small cell lung cancer (SCLC) cells; assay: AlamarBlue assay, NCI-H211; assay type: cell-based; settings: for Cellular activity in SCLCs (H211), alamarBlue: Fig.1e, replicates
# Protocol: (§1) 3. AlamarBlue assay. AlamarBlue was made by resazurin sodium salt (Sigma, Cat
# (§2) # 199303) dissolved in PBS.
# (§3) NCI-H211, MDA-MB231 and A375 cells were plated in 96-well plates at approximately 30% confluence and left overnight to adhere. In the following day, […]
# (§4) of treatment, 10 μl AlamarBlue reagent (0.3 mg/ml) was added to each well, and after 18h, the florescence intensity in each well was measured using a top-reading fluorescent plate reader with excitation at 530 nm and emission at 590 nm. […]
# [2] = system: MDA-MB231 triple negative breast cancer (TNBC) cells; assay: AlamarBlue assay, MDA-MB231; assay type: cell-based, human; settings: for Cellular activity in TNBCs (MDA-MB231), alamarBlue: Fig.1f, replicates
# Protocol: as §1, §2, §3, §4
# [3] = Body weight change of H526 SCLC tumor bearing mice; settings: for Mouse body weight changes (%) from Day 0: 3mg/kg, QDx21D, 3 mg/kg
structure (smiles),measurement,setting,value
Cc1nnn(C)c1-c1cnc2c3c4cnn(C)c4ccc3n([C@H](c3ccccc3)C3CCOCC3)c2c1 [NHWD-870],effect on tumor growth,"A375 human melanoma; A375 human melanoma, once daily (5 days on, 2 days off) 21 days, NHWD-870-HCl",very strong tumor inhibitive effects
same,"activity and possible toxicity, Stille versus Suzuki coupling route","A375 human melanoma; A375 melanoma bearing mice, 2mg/kg orally once daily for 21 days",identical
same,% of KI67 (Ki67 positive cells),H526 tumors,10% and 8% and 13% and 11% and 6%
same,fold increased potency versus BMS-986158,"[1]; Fig 1e, f",3 fold
same,"Cellular activity in SCLCs (H211), alamarBlue",[1]; concentration 0.0169701,15.41 and 2.82
same,"Cellular activity in SCLCs (H211), alamarBlue",[1]; concentration 0.0398488,10.96 and 4.35
same,"Cellular activity in SCLCs (H211), alamarBlue",[1]; concentration 0.137272,28.76 and 26.98
same,"Cellular activity in SCLCs (H211), alamarBlue",[1]; concentration 0.614394,86.83 and 87.53
same,"Cellular activity in SCLCs (H211), alamarBlue",[1]; concentration 1.09152,89.61 and 89.15
same,"Cellular activity in SCLCs (H211), alamarBlue",[1]; concentration 1.56864,89.26 and 88.73
same,"Cellular activity in SCLCs (H211), alamarBlue",[1]; concentration 2.04576,89.83 and 90.11
same,"Cellular activity in SCLCs (H211), alamarBlue",[1]; concentration 3,91.32 and 90.79
same,"Cellular activity in SCLCs (H211), alamarBlue",[1]; concentration column prints 2.52288,91.56 and 90.89
same,IC50,"[1]; Homo sapiens, NCI-H211, 72 h, 72 h treatment, nM, read-out: IC50, cellular activity in NCI-H211 (alamarBlue)",2 nM
same,fold more potent than JQ1,[1]; NCI-H211 and MDA-MB231 cells,about 50 fold
same,"Cellular activity in TNBCs (MDA-MB231), alamarBlue",[2]; concentration 0.15,49.81 and 46.95
same,"Cellular activity in TNBCs (MDA-MB231), alamarBlue",[2]; concentration 0.6,80.07 and 80.02
same,"Cellular activity in TNBCs (MDA-MB231), alamarBlue",[2]; concentration 1,86.71 and 86.28
same,"Cellular activity in TNBCs (MDA-MB231), alamarBlue",[2]; concentration 1.5,87.88 and 89.64
same,"Cellular activity in TNBCs (MDA-MB231), alamarBlue",[2]; concentration 2,89.68 and 91.47
same,"Cellular activity in TNBCs (MDA-MB231), alamarBlue",[2]; concentration 2.5,90.92 and 92.15
same,"Cellular activity in TNBCs (MDA-MB231), alamarBlue",[2]; concentration 3,92.14 and 92.46
same,"Cellular activity in TNBCs (MDA-MB231), alamarBlue",[2]; concentration -0.3,13.41 and 13.25
same,"Cellular activity in TNBCs (MDA-MB231), alamarBlue",[2]; concentration -0.9,6.42 and 8.37
same,IC50,"[2]; Homo sapiens, MDA-MB-231, 72 h, 72 h treatment, nM, read-out: IC50, cellular activity in MDA-MB231 (alamarBlue)",1.6 nM
same,Body weight change (%),"[3]; 3mg/kg,QD, day 0 and day 20 or the last available data point, individual mice",-7.583% and -7.971% and -2.299% and 0.4517%
same,Mouse body weight changes (%) from Day 0,"[3]; Day 3, individual mice",-0.08% and -2.62% and -1.34% and 1.57% and 0.13% and 1.52%
same,Mouse body weight changes (%) from Day 0,"[3]; Day 7, individual mice",-7.05% and -0.52% and -4.19% and 1.94% and -3.62% and 0.82%
same,Mouse body weight changes (%) from Day 0,"[3]; Day 10, individual mice",-10.82% and -3.48% and 3.84% and -1.13% and -5.35% and 3.04%
same,Mouse body weight changes (%) from Day 0,"[3]; Day 14, individual mice",-1.11% and -16.35% and -6.33% and 0.59% and -10.57% and -3.67%
same,Mouse body weight changes (%) from Day 0,"[3]; Day 17, individual mice",3.90% and -4.84% and -5.58% and -1.24% and -10.06% and -0.93%
same,Mouse body weight changes (%) from Day 0,"[3]; Day 20, individual mice",0.45% and -8.20% and -7.58% and -7.97% and -11.87% and -2.30%
same,body weight loss,"[3]; H526 SCLC tumor bearing mice, 3mg/kg QD",about 6%
